From PubChem BioAssay AID1259407 (Chemical Carcinogenesis Research Information System (CCRIS), 2018)
Active and inactive are the calls of the source. No rule for the calls is given here.

System: CCRIS mutagenicity, Ames/micronucleus/aberration tests
Experiment: CCRIS mutagenicity studies
[1] = Test System: AMES SALMONELLA TYPHIMURIUM, Strain/Indicator: TA98, Metabolic Activation: NONE, Method: PREINCUBATION
[2] = Test System: AMES SALMONELLA TYPHIMURIUM, Strain/Indicator: TA100, Metabolic Activation: NONE, Method: STANDARD PLATE
[3] = Test System: AMES SALMONELLA TYPHIMURIUM, Strain/Indicator: TA100, Metabolic Activation: NONE, Method: PREINCUBATION
[4] = Test System: AMES SALMONELLA TYPHIMURIUM, Strain/Indicator: TA1535, Metabolic Activation: NONE, Method: PREINCUBATION

For `O=[N+]([O-])c1ccc(Nc2ccc(N=C=S)cc2)cc1`, the mutagenic call [1] was “inactive; negative”, the mutagenic call (Test System: AMES SALMONELLA TYPHIMURIUM, Strain/Indicator: TA98, Metabolic Activation: NONE, Method: STANDARD PLATE) was “inactive; negative” and the mutagenic call (Test System: AMES SALMONELLA TYPHIMURIUM, Strain/Indicator: TA98, Metabolic Activation: RAT, LIVER, S-9, AROCLOR 1254, Method: PREINCUBATION) was “inactive; negative”. The mutagenic call (Test System: AMES SALMONELLA TYPHIMURIUM, Strain/Indicator: TA98, Metabolic Activation: RAT, LIVER, S-9, AROCLOR 1254 OR PHENOBARBITOL, Method: STANDARD PLATE) was “inactive; negative”, the mutagenic call [2] was “inactive; negative” and the mutagenic call (Test System: AMES SALMONELLA TYPHIMURIUM, Strain/Indicator: TA100, Metabolic Activation: RAT, LIVER, S-9, AROCLOR 1254 OR PHENOBARBITOL, Method: STANDARD PLATE) was “inactive; negative”. For the same molecule, the mutagenic call (Test System: AMES SALMONELLA TYPHIMURIUM, Strain/Indicator: TA1535, Metabolic Activation: NONE, Method: STANDARD PLATE) was “inactive; negative”, the mutagenic call (Test System: AMES SALMONELLA TYPHIMURIUM, Strain/Indicator: TA1535, Metabolic Activation: RAT, LIVER, S-9, AROCLOR 1254 OR PHENOBARBITOL, Method: STANDARD PLATE) was “inactive; negative” and the mutagenic call (Test System: AMES SALMONELLA TYPHIMURIUM, Strain/Indicator: TA1537, Metabolic Activation: NONE, Method: STANDARD PLATE) was “inactive; negative”. For the same molecule, the mutagenic call (Test System: AMES SALMONELLA TYPHIMURIUM, Strain/Indicator: TA1537, Metabolic Activation: RAT, LIVER, S-9, AROCLOR 1254 OR PHENOBARBITOL, Method: STANDARD PLATE) was “inactive; negative”, the mutagenic call (Test System: AMES SALMONELLA TYPHIMURIUM, Strain/Indicator: TA1538, Metabolic Activation: NONE, Method: STANDARD PLATE) was “inactive; negative” and the mutagenic call (Test System: AMES SALMONELLA TYPHIMURIUM, Strain/Indicator: TA1538, Metabolic Activation: RAT, LIVER, S-9, AROCLOR 1254 OR PHENOBARBITOL, Method: STANDARD PLATE) was “inactive; negative”.

With `[O-][n+]1cc2cnccc2cn1` the mutagenic call [1] was “active; positive”, the mutagenic call (Test System: AMES SALMONELLA TYPHIMURIUM, Strain/Indicator: TA98, Metabolic Activation: RAT, LIVER, S-9, PCB, Method: PREINCUBATION) was “active; positive” and the mutagenic call [3] was “inactive; negative”. The mutagenic call (Test System: AMES SALMONELLA TYPHIMURIUM, Strain/Indicator: TA100, Metabolic Activation: RAT, LIVER, S-9, PCB, Method: PREINCUBATION) was “inactive; negative”.

In the case of `C=C1C[C@@]23CC[C@H]4[C@@](C)(CCC[C@@]4(C)C(=O)O[C@@H]4O[C@H](CO)[C@@H](O)[C@H](O)[C@H]4O)[C@@H]2CC[C@]1(O[C@@H]1O[C@H](CO)[C@@H](O)[C@H](O)[C@H]1O[C@@H]1O[C@@H](C)[C@H](O)[C@@H](O)[C@H]1O)C3`, the mutagenic call (Test System: AMES SALMONELLA TYPHIMURIUM, Strain/Indicator: TM677, Metabolic Activation: RAT, LIVER, S-9, AROCLOR 1254, Method: PREINCUBATION) is reported as “inactive; negative”.

`Nc1ccc2snc(Cl)c2c1` was tested, and the mutagenic call [2] was “active; positive”.

In the case of `C=CC1CC2C=CC1C2` (centres undefined), the mutagenic call [1] is reported as “inactive; negative”, the mutagenic call (Test System: AMES SALMONELLA TYPHIMURIUM, Strain/Indicator: TA98, Metabolic Activation: RAT LIVER S-9, AROCLOR 1254, Method: PREINCUBATION) is reported as “inactive; negative” and the mutagenic call [3] is reported as “inactive; negative”. The mutagenic call (Test System: AMES SALMONELLA TYPHIMURIUM, Strain/Indicator: TA100, Metabolic Activation: RAT LIVER S-9, AROCLOR 1254, Method: PREINCUBATION) was “inactive; negative”, the mutagenic call [4] was “inactive; negative” and the mutagenic call (Test System: AMES SALMONELLA TYPHIMURIUM, Strain/Indicator: TA1535, Metabolic Activation: RAT LIVER S-9, AROCLOR 1254, Method: PREINCUBATION) was “inactive; negative”. The mutagenic call (Test System: AMES SALMONELLA TYPHIMURIUM, Strain/Indicator: TA1537, Metabolic Activation: NONE, Method: PREINCUBATION) was “inactive; negative”, the mutagenic call (Test System: AMES SALMONELLA TYPHIMURIUM, Strain/Indicator: TA1537, Metabolic Activation: RAT LIVER S-9, AROCLOR 1254, Method: PREINCUBATION) was “inactive; negative” and the mutagenic call (Test System: AMES SALMONELLA TYPHIMURIUM, Strain/Indicator: TA1538, Metabolic Activation: NONE, Method: PREINCUBATION) was “inactive; negative”. The mutagenic call (Test System: AMES SALMONELLA TYPHIMURIUM, Strain/Indicator: TA1538, Metabolic Activation: RAT LIVER S-9, AROCLOR 1254, Method: PREINCUBATION) was “inactive; negative”, the mutagenic call (Test System: CHINESE HAMSTER OVARY, Strain/Indicator: CHO-K1-BH4 (HGPRT)/6-THIOGUANINE, Metabolic Activation: NONE) was “inactive; negative” and the mutagenic call (Test System: CHINESE HAMSTER OVARY, Strain/Indicator: CHO-K1-BH4 (HGPRT)/6-THIOGUANINE, Metabolic Activation: RAT LIVER S-9, AROCLOR 1254) was “inactive; negative”.

In the case of `Oc1c(Cl)c(Cl)cc(Cl)c1Cl`, the mutagenic call (End Point: IN VITRO CHROMOSOMAL ABERRATIONS, Test System: CHINESE HAMSTER LUNG CELLS (CHL), Metabolic Activation: NONE) is reported as “inactive; negative”, the mutagenic call (End Point: IN VITRO CHROMOSOMAL ABERRATIONS, Test System: CHINESE HAMSTER LUNG CELLS (CHL), Metabolic Activation: RAT, LIVER, S-9, KC-400) is reported as “active; positive (structural changes)” and the mutagenic call (End Point: IN VITRO CHROMOSOMAL ABERRATIONS, Test System: CHINESE HAMSTER OVARY CELLS (CHO), Metabolic Activation: NONE) is reported as “inactive; negative”. For the same molecule, the mutagenic call (End Point: IN VITRO CHROMOSOMAL ABERRATIONS, Test System: CHINESE HAMSTER OVARY CELLS (CHO), Metabolic Activation: RAT, LIVER, S-9, AROCLOR 1254) was “active; positive (structural changes)”, the mutagenic call (Test System: AMES SALMONELLA TYPHIMURIUM, Strain/Indicator: TA97, Metabolic Activation: HAMSTER, LIVER, S-9, AROCLOR 1254 (10%), Method: PREINCUBATION) was “inactive; negative” and the mutagenic call (Test System: AMES SALMONELLA TYPHIMURIUM, Strain/Indicator: TA97, Metabolic Activation: HAMSTER, LIVER, S-9, AROCLOR 1254 (30%), Method: PREINCUBATION) was “inactive; negative”. For the same molecule, the mutagenic call (Test System: AMES SALMONELLA TYPHIMURIUM, Strain/Indicator: TA97, Metabolic Activation: NONE, Method: PREINCUBATION) was “inactive; negative”, the mutagenic call (Test System: AMES SALMONELLA TYPHIMURIUM, Strain/Indicator: TA97, Metabolic Activation: RAT, LIVER, S-9, AROCLOR 1254 (10%), Method: PREINCUBATION) was “inactive; negative” and the mutagenic call (Test System: AMES SALMONELLA TYPHIMURIUM, Strain/Indicator: TA97, Metabolic Activation: RAT, LIVER, S-9, AROCLOR 1254 (30%), Method: PREINCUBATION) was “inactive; negative”. For the same molecule, the mutagenic call (Test System: AMES SALMONELLA TYPHIMURIUM, Strain/Indicator: TA98, Metabolic Activation: HAMSTER, LIVER, S-9, AROCLOR 1254 (10%), Method: PREINCUBATION) was “inactive; negative”, the mutagenic call (Test System: AMES SALMONELLA TYPHIMURIUM, Strain/Indicator: TA98, Metabolic Activation: HAMSTER, LIVER, S-9, AROCLOR 1254 (30%), Method: PREINCUBATION) was “inactive; negative” and the mutagenic call [1] was “inactive; negative”. For the same molecule, the mutagenic call (Test System: AMES SALMONELLA TYPHIMURIUM, Strain/Indicator: TA98, Metabolic Activation: RAT, LIVER, S-9, AROCLOR 1254 (10%), Method: PREINCUBATION) was “inactive; negative”, the mutagenic call (Test System: AMES SALMONELLA TYPHIMURIUM, Strain/Indicator: TA98, Metabolic Activation: RAT, LIVER, S-9, AROCLOR 1254 (30%), Method: PREINCUBATION) was “inactive; negative” and the mutagenic call (Test System: AMES SALMONELLA TYPHIMURIUM, Strain/Indicator: TA100, Metabolic Activation: HAMSTER, LIVER, S-9, AROCLOR 1254 (10%), Method: PREINCUBATION) was “inactive; negative”. For the same molecule, the mutagenic call (Test System: AMES SALMONELLA TYPHIMURIUM, Strain/Indicator: TA100, Metabolic Activation: HAMSTER, LIVER, S-9, AROCLOR 1254 (30%), Method: PREINCUBATION) was “inactive; negative”, the mutagenic call [3] was “inactive; negative” and the mutagenic call (Test System: AMES SALMONELLA TYPHIMURIUM, Strain/Indicator: TA100, Metabolic Activation: RAT, LIVER, S-9, AROCLOR 1254 (10%), Method: PREINCUBATION) was “inactive; negative”. For the same molecule, the mutagenic call (Test System: AMES SALMONELLA TYPHIMURIUM, Strain/Indicator: TA100, Metabolic Activation: RAT, LIVER, S-9, AROCLOR 1254 (30%), Method: PREINCUBATION) was “inactive; negative”, the mutagenic call (Test System: AMES SALMONELLA TYPHIMURIUM, Strain/Indicator: TA1535, Metabolic Activation: HAMSTER, LIVER, S-9, AROCLOR 1254 (10%), Method: PREINCUBATION) was “inactive; negative” and the mutagenic call (Test System: AMES SALMONELLA TYPHIMURIUM, Strain/Indicator: TA1535, Metabolic Activation: HAMSTER, LIVER, S-9, AROCLOR 1254 (30%), Method: PREINCUBATION) was “inactive; negative”. The mutagenic call [4] was “inactive; negative”, the mutagenic call (Test System: AMES SALMONELLA TYPHIMURIUM, Strain/Indicator: TA1535, Metabolic Activation: RAT, LIVER, S-9, AROCLOR 1254 (10%), Method: PREINCUBATION) was “inactive; negative” and the mutagenic call (Test System: AMES SALMONELLA TYPHIMURIUM, Strain/Indicator: TA1535, Metabolic Activation: RAT, LIVER, S-9, AROCLOR 1254 (30%), Method: PREINCUBATION) was “inactive; negative”.
